# How the values were obtained:
# [1] = Miscibility of the ionic liquid with water and organic solvents; assay type: physicochemical
# Procedure: (§1) The viscosity at 25° C. at a low shear rate is in the order of one million millipascal seconds.
# (§2) Owing to the amphiphilic and thus solubilizing properties, the ionic liquid of example 6 has a wider solvent spectrum than conventional ionic liquids. Furthermore, it can be concluded that the ionic liquid of example 6 has structuring properties in water, organic solvents and in particular also in the pure state. Accordingly, it can serve, for example, as template in the mineralization processes (e.g. for mesoporous silicates). Furthermore, the ionic liquid of example 6 is liquid at room temperature (for melting point, see Table 1).
# [2] = Decomposition point (commencement of decomposition) of 2,5,8,11-tetraoxatridecan-13-oates; assay type: physicochemical
# Excerpt: (§3) Melting and decomposition points (commencement of decomposition) and viscosities of various 2,5,8,11-tetraoxatridecan-13-oates.
# [3] = Viscosity of the ionic liquids at 25° C.; assay type: physicochemical
# Procedure: as §1, §3
# ^1All liquids examined behaved as Newtonian fluids
# [4] = Solubility experiments: salts and olive oil dissolved in TEGMECH2COONa; assay type: physicochemical
# Procedure: Solubility experiments were carried out using the sodium 2,5,8,11-tetraoxatridecan-13-oate synthesized as described in example 1.
# The solubility of olive oil in a concentration of up to 10% by weight in TEGMECH2COONa is particularly worthy of mention with regard to the environmental compatibility of the sodium salt.
# [5] = Electrical conductivity, fluorescence and surface tension measurements in aqueous solution; assay type: physicochemical; conditions: concluded from conductivity and fluorescence or surface tension measurements in aqueous medium
# Excerpt: as §2
molecule,measurement,setting,value
"COCCOCCOCCOCC(=O)[O-].[Na+] [Example 1, sodium 2,5,8,11-tetraoxatridecan-13-oate]",Miscibility with acetone,[1]; acetone,miscible in any ratio
same,Miscibility with dichloromethane,[1]; dichloromethane,miscible in any ratio
same,Miscibility with diethyl ether,[1]; diethyl ether,partially miscible
same,Miscibility with pentanol,[1]; pentanol,miscible in any ratio
same,Miscibility with water,[1],miscible in any ratio
same,Decomposition point,[2],384 °C
same,Viscosity,[3]; at 25° C.,1.64 · 10^5 mPa · s
same,Viscosity,"[3]; at 25° C. at a low shear rate, order of magnitude",one million
same,Solubility of magnesium sulfate in the ionic liquid,[4]; 120° C.,appreciably soluble
same,Solubility of ammonium nitrate in the ionic liquid,[4]; room temperature,readily soluble
same,Solubility of NaCl in the ionic liquid,[4]; temperatures above 100° C.,dissolves in low concentrations
"COCCOCCOCCOCC(=O)[O-].[K+] [Example 3, potassium 2,5,8,11-tetraoxatridecan-13-oate]",melting point,,59.1 °C
same,Decomposition point,[2],369 °C
"COCCOCCOCCOCC(=O)O [Example 5, hexylammonium 2,5,8,11-tetraoxatridecan-13-oate]",Viscosity,[3]; at 25° C.,2.40 · 10^2 mPa · s
same,Viscosity,[3]; order of magnitude,~20 000 mPas
same,Character in aqueous solution,[5],hydrotropic character
CCCCCCCCN.COCCOCCOCCOCC(=O)O [Example 7],Decomposition point,[2],145 °C
same,Viscosity,[3]; at 25° C.,3.75 · 10^2 mPa · s
CCCCCCCCCCN.COCCOCCOCCOCC(=O)O [Example 8],Decomposition point,[2],156 °C
same,Viscosity,[3]; at 25° C.,4.00 · 10^2 mPa · s
"calcium di(2,5,8,11-tetraoxatridecan-13-oate) [Example 4]",Decomposition point,[2],320 °C
"dodecylammonium 2,5,8,11-tetraoxatridecan-13-oate [Example 6]",Miscibility with water,[1],mixes with water in any ratio
same,Decomposition point,[2],165 °C
same,Viscosity,[3]; at 25° C.,4.67 · 10^2 mPa · s
same,Character in aqueous solution,[5],surfactant character

# From US8461382B2, “Ionic liquids” (BASF SE, priority 2007, dated 2013)
